Values quoted from earlier work, collected in patent US20110189299A1, “PHARMACEUTICAL COMPOSITION CONTAINING SURFACE-COATED MICROPARTICLES” (NITTO DENKO CORPORATION, priority 2008, published 2011).

pKa: 9.5
SMILES: CN(C)CCc1c[nH]c2ccc(C[C@H]3COC(=O)N3)cc12 [Zolmitriptan]
